# Patent US5624937A, “Chemical compounds as inhibitors of amyloid beta protein production” (Eli Lilly and Company, priority 1995, dated 1997)
# Test system: Aβ production (APP-751 Swedish mutation transfected cells 293 751 SWE and CHO 751 SWE)
# Experiment: Aβ production inhibition activity in cells (Aβ ELISA of conditioned media, normalized for MTT cytotoxicity)
# Format: cell-based
# Conditions: 2 h pretreatment + 2 h, normalized to MTT, mean of at least six replicate assays, cell line not stated, read-out: IC50 (concentration of test compound required to inhibit Aβ production by 50%)
# Experimental: Two cell lines (human kidney cell line 293 and Chinese hamster ovary cell line CHO) were stably transfected with the gene for APP-751 containing the double mutation Lys651 -Met652 to Asn651 -Leu652 (APP-751 numbering) commonly called the Swedish mutation using the method described in Citron et al., (1992) Nature 360: 672-674. The transfected cell lines were designated as 293 751 SWE and CHO 751 SWE, and were plated in Corning 96 well plates at 2.5×10^4 or 1×10^4 cells per well respectively in Dulbecco's minimal essential media plus 10% fetal bovine serum. Following overnight incubation at 37° C. in an incubator equilibrated with 10% carbon dioxide (CO2), the media were removed and replaced with 200 μL per well of media containing a test compound. After a two hour pretreatment period, the media were again removed and replaced with fresh media containing the test compound and the cells were incubated for an additional two hours.
# Test compound stocks were prepared in DMSO such that at the final concentration used in the treatment, the concentration of DMSO did no exceed 0.5%. After treatment, plates were centrifuged in a Beckman GPR at 1200 rpm for five minutes at room temperature to pellet cellular debris from the conditioned media. From each well, 100μL of conditioned media were transferred into an ELISA plate precoated with antibody 266 against βAP-13-28 (Seubert et al , supra.) and stored at 4° C. overnight. An ELISA assay employing labeled antibody 6C6 (against βAP-1-16) was run the next day to measure the amount of Aβ produced.
# Cytotoxic effects of the test compounds were measured by a modification of the method of Hansen et al., (1989) J. Immun. Meth. 119: 203-210. To the cells remaining in the tissue culture plate, was added 25 μL of a 3,(4,5-dimethylthiazol-2-yl)2,5-diphenyltetrazolium bromide (MTT) stock solution (5 mg/mL) to a final concentration of 1 mg/mL. Cells were incubated at 37° C. for one hour, and cellular activity was stopped by the addition of an equal volume of MTT lysis buffer (20% w/v sodium dodecylsulfate in 50% DMF, pH 4.7). Complete extraction was achieved by overnight shaking at room temperature. The difference in the OD562 nm and the OD650 nm was measured in a Molecular Devices UVmax microplate reader as an indicator of the cellular viability.
# The results of the Aβ ELISA were fit to a standard curve and expressed as ng/mL Aβ peptide. In order to normalize for cytotoxicity, these Aβ results were divided by the MTT results and expressed as a percentage of the results from a drug-free control.
# The test compounds were assayed for Aβ production inhibition activity in cells at 10 μg/mL using the test. The results presented in Table 1 are the mean and standard deviation of at least six replicate assays. IC50 means the concentration of test compound in micromoles/liter required to inhibit Aβ production by 50%.
smiles,measurement,value
"FC(F)(F)c1cc(NC(=S)Nc2ccc(Sc3ccc4ccccc4n3)cc2)ccc1Cl [Example 1, 1-[4-(2-quinolyl)thiophenyl]-3-(4-chloro-3-trifluoromethyphenyl)thiourea]",IC50,3.7 µM
"CCOC(=O)c1cc(Sc2ccc(NC(=S)Nc3ccc(Cl)c(C(F)(F)F)c3)cc2)nc2ccccc12 [Example 2, 1-[4-(4-ethoxycarbonyl-2-quinolylthio)phenyl]-3-(4-chloro-3-trifluoromethylphenyl)thiourea]",IC50,3.1 µM
"FC(F)(F)c1cc(NC(=S)Nc2ccc(Sc3ccc4cc(Cl)ccc4n3)cc2)ccc1Cl [Example 3, 1-[4-(6-Chloro-2-quinolylthio)phenyl]-3-(4-chloro-3-trifluoromethylphenyl)thiourea]",IC50,2.7 µM
"FC(F)(F)c1cc(NC(=S)Nc2ccc(Sc3cc(-c4ccccc4)c4ccccc4n3)cc2)ccc1Cl [Example 4, 1-[4-(4-Phenyl-2-quinolylthio)phenyl]-3-(4-chloro-3-trifluoromethylphenyl)thiourea]",IC50,> 20 µM
"COc1ccc2nc(Sc3ccc(NC(=S)Nc4ccc(Cl)c(C(F)(F)F)c4)cc3)ccc2c1 [Example 5, 1-[4-(6-Methoxy-2-quinolylthio)phenyl]-3-(4-chloro-3-trifluoromethylphenyl)thiourea]",IC50,4.4 µM
"FC(F)(F)c1cc(NC(=S)Nc2ccc(Sc3ccnc4ccccc34)cc2)ccc1Cl [Example 6, 1-[4-(4-Quinolylthio)phenyl]-3-(4-chloro-3-trifluoromethylphenyl)thiourea]",IC50,4.7 µM
"FC(F)(F)c1ccc2c(Sc3ccc(NC(=S)Nc4ccc(Cl)c(C(F)(F)F)c4)cc3)ccnc2c1 [Example 7, 1-[4-(7-Trifluoromethyl-4-quinolylthio)phenyl]-3-(4-chloro-3-trifluoromethylphenyl)thiourea]",IC50,4.5 µM
"FC(F)(F)c1cc(NC(=S)Nc2ccc(Sc3ccc4ccccc4c3)cc2)ccc1Cl [Example 8, 1-[4-(2-Naphthylthio)phenyl]-3-(4-chloro-3-trifluoromethylphenyl)thiourea]",IC50,2.6 µM
FC(F)(F)c1cc(NC(=S)Nc2ccc(Sc3cccc4ccccc34)cc2)ccc1Cl [Example 9],IC50,4.9 µM
"FC(F)(F)c1cc(NC(=S)Nc2ccc(Sc3nc4ccccc4[nH]3)cc2)ccc1Cl [Example 10, 1-[4-(2-Benzimidazolylthio)phenyl]-3-(4-chloro-3-trifluoromethylphenyl)thiourea]",IC50,7.1 µM
"FC(F)(F)c1cc(NC(=S)Nc2ccc(Sc3nc4ccccc4o3)cc2)ccc1Cl [Example 11, 1-[4-(2-Benzoxazolylthio)phenyl]-3-(4-chloro-3-trifluoromethylphenyl)thiourea]",IC50,12.5 µM
"FC(F)(F)c1cc(NC(=S)Nc2ccc(Sc3nc4ccccc4s3)cc2)ccc1Cl [Example 12, 1-[4-(2-Benzothiazolylthio)phenyl]-3-(4-chloro-3-trifluoromethylphenyl)thiourea]",IC50,3.9 µM
"FC(F)(F)c1cc(NC(=S)Nc2ccc(Sc3nc4cc(Cl)ccc4s3)cc2)ccc1Cl [Example 13, 1-[4-(5-Chloro-2-benzothiazolylthio)phenyl]-3-(4-chloro-3-trifluoromethylphenyl)thiourea]",IC50,1.7 µM
"[O-][S+](c1ccc(NC(=S)Nc2ccc(Cl)c(C(F)(F)F)c2)cc1)c1ccc2ccccc2n1 (stereo not shown) [Example 14, 1-[4-(2-Quinolylsulfinyl)phenyl]-3-(4-chloro-3-trifluoromethylphenyl)thiourea]",IC50,12.1 µM
"O=S(=O)(c1ccc(NC(=S)Nc2ccc(Cl)c(C(F)(F)F)c2)cc1)c1ccc2ccccc2n1 [Example 15, 1-[4-(2-Quinolylsulfonyl)phenyl]-3-(4-chloro-3-trifluoromethylphenyl)thiourea]",IC50,3.7 µM
"FC(F)(F)c1cc(NC(=S)Nc2ccc(Nc3ccc4ccccc4n3)cc2)ccc1Cl [Example 16, 1-[4-(2-quinolylamino)phenyl]-3-(4-chloro-3-trifluoromethylphenyl)thiourea]",IC50,11.8 µM
"FC(F)(F)c1cc(NC(=S)Nc2ccc(Oc3ccc4ccccc4n3)cc2)ccc1Cl [Example 17, 1-[4-(2-Quinolyloxy)phenyl]-3-(4-chloro-3-trifluoromethylphenyl)thiourea]",IC50,9.7 µM
"O=C(Nc1ccc(Sc2ccc3ccccc3n2)cc1)Nc1ccc(Cl)c(C(F)(F)F)c1 [Example 18, 1-[4-(2-Quinolylthio)phenyl]-3-(4-chloro-3-trifluoromethylphenyl]urea]",IC50,> 20 µM
"S=C(Nc1ccc(Sc2ccc3ccccc3n2)cc1)Nc1ccc(Cl)c(Cl)c1 [Example 19, 1-[4-(2-Quinolylthio)phenyl]-3-(3,4-dichlorophenyl)thiourea]",IC50,13.8 µM
FC(F)(F)c1cc(NC(=S)Nc2ccc(Sc3ccc(-c4ccccc4)nn3)cc2)ccc1Cl [Example 20],IC50,4.4 µM
FC(F)(F)c1cc(NC(=S)Nc2ccc(Sc3ccccn3)cc2)ccc1Cl [Example 21],IC50,8.3 µM
O=[N+]([O-])c1c(Sc2ccc(NC(=S)Nc3ccc(Cl)c(C(F)(F)F)c3)cc2)ccc2ncccc12 [Example 22],IC50,4.3 µM
